Results on 1 substance are retold here after US6387397B1, “Polymerized liposomes targeted to M cells and useful for oral or mucosal drug delivery” (Massachusetts Institute of Technology, priority 1997, dated 2002).

The assay is described as follows: In vivo oral insulin delivery; blood glucose level. Details: species or system Balb/C mice. Conditions: mice, single oral dose, 1 to 3.5 hours. Here is the method: Balb/C mice of female sex were fasted for 12 hours before experiment. Each mouse wag savaged 200 μL of each preparation as described in Table 9.3. Food was restored immediately after administration. Blood samples for glucose determination was drawn from mouse tail vein under methoxyflurane anesthesia. Samples were drawn right before the administration (0 hour), as well as at 1, 2, 3 and 3.5 hours post administration of each preparation. Blood glucose level was measured using a One Touch® Profile Diabetes Tracking system (Lifescan, Milpitas, Calif.) with One Touch® Test strips, by applying blood to form a round drop which completely covered the test spot on the test strip. Readings (in mg/dL) were obtained from the meter indicating the blood glucose level detected.
Blood glucose level at zero hour was taken at 100 percent. Blood glucose levels after the oral administration were normalized by the level at zero hour, and the results were plotted in FIG. 9. […] This was due to the degradation of the unprotected peptide in the gastrointestinal tract by the digestive enzymes. […] This is consistent with the fact that unpolymerized liposomes are not stable in the gastrointestinal tract, where they are dissolved by the biological detergents. The dissolution results in the exposure of liposomal contents and therefore the loss of liposome protective functions. […]

Turning to “insulin in solution: human insulin (regular) administered orally in solution”, the “change in blood glucose level after oral administration” value is listed as “did not result in any significant change”.
